Experimental data taken from ChEMBL document CHEMBL5653631, “A Potent and Selective ULK1 Inhibitor Suppresses Autophagy and Sensitizes Cancer Cells to Nutrient Stress” (iScience, 2018).
Each block holds one molecule with its values, some of them ahead of it.

Tests used:
[1] = biological target: Tau-tubulin kinase 1 (Homo sapiens) (UniProt Q5TCY1); test: Inhibition of human recombinant TTBK1 at 500 nM related to control ULK1
[2] = biological target: T1, Serine/threonine-protein kinase TAO3 (Homo sapiens) (UniProt Q9H2K8); test: Inhibition of human recombinant TAO3 at 500 nM in presence of ATP by radiometric assay relative to control
T1 sequence (whole entry): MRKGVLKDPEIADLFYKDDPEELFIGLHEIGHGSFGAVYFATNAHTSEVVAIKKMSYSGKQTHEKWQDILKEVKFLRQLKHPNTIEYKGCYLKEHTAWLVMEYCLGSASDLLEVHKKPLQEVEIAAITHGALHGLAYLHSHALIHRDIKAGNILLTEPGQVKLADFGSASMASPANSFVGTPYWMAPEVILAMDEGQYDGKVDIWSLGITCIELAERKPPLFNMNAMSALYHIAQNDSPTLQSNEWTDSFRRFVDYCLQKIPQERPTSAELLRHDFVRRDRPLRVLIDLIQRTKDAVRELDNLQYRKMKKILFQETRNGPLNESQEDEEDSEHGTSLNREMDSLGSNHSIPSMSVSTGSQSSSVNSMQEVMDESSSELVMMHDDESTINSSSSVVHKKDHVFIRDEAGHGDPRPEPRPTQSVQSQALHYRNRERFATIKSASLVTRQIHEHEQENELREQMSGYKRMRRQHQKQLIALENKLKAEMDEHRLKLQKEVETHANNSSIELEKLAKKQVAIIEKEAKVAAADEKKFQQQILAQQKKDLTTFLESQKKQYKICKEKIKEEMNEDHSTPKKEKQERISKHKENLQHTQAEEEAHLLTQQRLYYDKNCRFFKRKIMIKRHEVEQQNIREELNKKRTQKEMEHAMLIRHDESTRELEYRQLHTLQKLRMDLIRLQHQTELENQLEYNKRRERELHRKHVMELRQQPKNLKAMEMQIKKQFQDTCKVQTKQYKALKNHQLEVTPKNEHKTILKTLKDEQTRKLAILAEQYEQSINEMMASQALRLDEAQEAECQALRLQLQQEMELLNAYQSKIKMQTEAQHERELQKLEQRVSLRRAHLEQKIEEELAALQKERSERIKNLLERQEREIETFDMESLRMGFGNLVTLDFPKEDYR

[3] = biological target: Casein kinase I isoform gamma-2 (Homo sapiens) (UniProt P78368); test: Inhibition of human recombinant CK1g2 at 40 nM related to control ULK1
Chain of Casein kinase I isoform gamma-2 (Homo sapiens) (P78368 whole entry, looked up, canonical isoform): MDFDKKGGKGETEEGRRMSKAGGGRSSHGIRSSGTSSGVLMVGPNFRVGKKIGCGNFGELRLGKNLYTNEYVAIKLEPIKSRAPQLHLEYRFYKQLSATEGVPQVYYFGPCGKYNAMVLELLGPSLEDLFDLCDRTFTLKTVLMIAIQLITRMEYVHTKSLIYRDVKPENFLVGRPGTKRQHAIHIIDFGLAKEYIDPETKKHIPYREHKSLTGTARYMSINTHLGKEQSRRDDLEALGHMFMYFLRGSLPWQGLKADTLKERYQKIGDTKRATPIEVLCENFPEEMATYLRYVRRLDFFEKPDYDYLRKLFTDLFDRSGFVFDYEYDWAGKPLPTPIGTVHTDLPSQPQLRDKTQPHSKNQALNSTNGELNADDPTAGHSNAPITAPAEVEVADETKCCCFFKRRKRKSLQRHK

[4] = biological target: [Pyruvate dehydrogenase (acetyl-transferring)] kinase isozyme 4, mitochondrial (Homo sapiens) (UniProt Q16654); test: Inhibition of human recombinant PDHK4 at 15 nM in presence of ATP by radiometric assay relative to control
Chain of [Pyruvate dehydrogenase (acetyl-transferring)] kinase isozyme 4, mitochondrial (Homo sapiens) (Q16654 whole entry, looked up): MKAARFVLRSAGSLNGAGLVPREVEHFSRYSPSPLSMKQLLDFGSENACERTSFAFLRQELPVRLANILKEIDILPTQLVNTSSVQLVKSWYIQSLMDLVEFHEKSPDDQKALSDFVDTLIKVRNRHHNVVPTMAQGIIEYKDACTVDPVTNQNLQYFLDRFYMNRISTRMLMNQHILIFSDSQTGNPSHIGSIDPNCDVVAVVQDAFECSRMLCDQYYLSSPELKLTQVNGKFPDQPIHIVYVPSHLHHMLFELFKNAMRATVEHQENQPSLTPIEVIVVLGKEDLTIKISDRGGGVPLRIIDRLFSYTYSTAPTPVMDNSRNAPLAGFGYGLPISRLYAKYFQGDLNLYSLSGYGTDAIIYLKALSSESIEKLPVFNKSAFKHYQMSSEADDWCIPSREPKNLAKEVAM

[5] = biological target: Ephrin type-A receptor 5 (Homo sapiens) (UniProt P54756); test: Inhibition of human recombinant EphA5 at 15 nM in presence of ATP by radiometric assay relative to control
Chain of Ephrin type-A receptor 5 (Homo sapiens) (P54756 whole entry): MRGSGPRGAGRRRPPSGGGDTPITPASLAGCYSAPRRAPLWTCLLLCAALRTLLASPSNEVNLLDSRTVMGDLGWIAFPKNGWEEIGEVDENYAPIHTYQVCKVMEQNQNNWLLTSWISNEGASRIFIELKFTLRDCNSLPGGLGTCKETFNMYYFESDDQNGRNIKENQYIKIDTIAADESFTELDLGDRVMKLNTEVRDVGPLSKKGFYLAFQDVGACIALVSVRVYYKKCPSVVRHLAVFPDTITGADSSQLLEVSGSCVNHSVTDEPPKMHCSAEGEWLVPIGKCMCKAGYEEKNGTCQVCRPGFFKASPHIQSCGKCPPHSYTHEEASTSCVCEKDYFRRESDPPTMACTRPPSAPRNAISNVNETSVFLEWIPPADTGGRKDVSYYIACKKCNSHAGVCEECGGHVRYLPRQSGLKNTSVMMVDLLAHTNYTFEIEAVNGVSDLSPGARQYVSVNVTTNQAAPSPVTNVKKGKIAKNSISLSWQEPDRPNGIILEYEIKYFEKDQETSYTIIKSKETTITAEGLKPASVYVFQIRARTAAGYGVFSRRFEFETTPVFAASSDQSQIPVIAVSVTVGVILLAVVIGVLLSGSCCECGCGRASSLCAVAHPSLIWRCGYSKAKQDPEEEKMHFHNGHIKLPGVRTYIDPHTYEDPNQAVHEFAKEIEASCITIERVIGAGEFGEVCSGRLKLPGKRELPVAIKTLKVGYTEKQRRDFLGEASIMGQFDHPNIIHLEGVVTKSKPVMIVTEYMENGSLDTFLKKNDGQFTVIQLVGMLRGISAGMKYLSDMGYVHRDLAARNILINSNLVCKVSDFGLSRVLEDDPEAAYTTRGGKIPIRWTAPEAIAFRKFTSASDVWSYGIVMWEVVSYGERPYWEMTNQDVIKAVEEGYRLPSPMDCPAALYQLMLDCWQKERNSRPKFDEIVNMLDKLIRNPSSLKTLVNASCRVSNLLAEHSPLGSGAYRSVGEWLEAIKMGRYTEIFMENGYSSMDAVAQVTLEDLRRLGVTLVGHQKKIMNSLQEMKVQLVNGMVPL

[6] = biological target: T2, Mitogen-activated protein kinase kinase kinase 2 (Homo sapiens) (UniProt Q9Y2U5); test: Inhibition of human recombinant MAP3K2 at 15 nM in presence of ATP by radiometric assay relative to control
T2 sequence (whole entry): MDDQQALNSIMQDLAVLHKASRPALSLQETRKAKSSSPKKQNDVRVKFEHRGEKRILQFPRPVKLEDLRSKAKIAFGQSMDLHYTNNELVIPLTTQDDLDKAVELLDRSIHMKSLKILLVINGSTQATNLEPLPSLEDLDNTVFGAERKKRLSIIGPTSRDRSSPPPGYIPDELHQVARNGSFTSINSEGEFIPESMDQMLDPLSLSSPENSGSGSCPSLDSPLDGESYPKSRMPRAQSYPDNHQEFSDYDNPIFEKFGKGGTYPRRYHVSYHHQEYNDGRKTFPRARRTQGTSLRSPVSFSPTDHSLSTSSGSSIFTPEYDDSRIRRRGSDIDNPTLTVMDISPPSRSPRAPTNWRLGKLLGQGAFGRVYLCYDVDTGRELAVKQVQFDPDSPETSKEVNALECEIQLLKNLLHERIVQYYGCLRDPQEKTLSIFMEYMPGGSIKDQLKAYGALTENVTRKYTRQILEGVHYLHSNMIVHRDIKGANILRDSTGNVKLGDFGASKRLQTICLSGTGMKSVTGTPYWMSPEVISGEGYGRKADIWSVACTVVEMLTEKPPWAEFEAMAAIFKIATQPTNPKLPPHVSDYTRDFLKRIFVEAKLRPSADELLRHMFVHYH

[7] = biological target: Serine/threonine-protein kinase 10 (Homo sapiens) (UniProt O94804); test: Inhibition of human recombinant LOK at 15 nM in presence of ATP by radiometric assay relative to control
Chain of Serine/threonine-protein kinase 10 (Homo sapiens) (O94804 whole entry, looked up): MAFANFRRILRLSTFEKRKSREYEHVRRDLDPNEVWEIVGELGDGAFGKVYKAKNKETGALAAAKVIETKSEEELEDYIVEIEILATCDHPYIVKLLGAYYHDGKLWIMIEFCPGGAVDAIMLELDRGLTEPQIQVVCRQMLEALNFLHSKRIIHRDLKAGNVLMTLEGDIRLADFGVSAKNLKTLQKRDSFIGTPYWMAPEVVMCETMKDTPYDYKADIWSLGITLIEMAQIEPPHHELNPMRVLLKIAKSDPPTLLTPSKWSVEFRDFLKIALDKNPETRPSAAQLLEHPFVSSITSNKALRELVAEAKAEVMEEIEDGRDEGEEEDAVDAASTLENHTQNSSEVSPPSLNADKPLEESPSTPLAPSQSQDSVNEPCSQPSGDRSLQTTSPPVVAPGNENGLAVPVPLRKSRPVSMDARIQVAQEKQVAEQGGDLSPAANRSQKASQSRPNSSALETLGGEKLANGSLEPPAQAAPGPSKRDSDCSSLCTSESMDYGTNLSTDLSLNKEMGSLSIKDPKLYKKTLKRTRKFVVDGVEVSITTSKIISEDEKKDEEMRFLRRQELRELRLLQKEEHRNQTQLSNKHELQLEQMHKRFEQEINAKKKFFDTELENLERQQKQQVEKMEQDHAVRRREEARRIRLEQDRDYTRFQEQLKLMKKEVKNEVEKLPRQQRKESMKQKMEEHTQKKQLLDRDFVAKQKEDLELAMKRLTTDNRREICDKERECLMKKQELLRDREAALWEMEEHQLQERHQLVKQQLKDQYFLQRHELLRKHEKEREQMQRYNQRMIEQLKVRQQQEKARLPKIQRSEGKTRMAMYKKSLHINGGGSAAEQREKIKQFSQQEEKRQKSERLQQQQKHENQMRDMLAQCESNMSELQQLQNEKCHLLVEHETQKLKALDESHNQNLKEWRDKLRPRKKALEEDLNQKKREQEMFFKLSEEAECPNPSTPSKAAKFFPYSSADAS

[8] = biological target: Cell division cycle 7-related protein kinase (Homo sapiens) (UniProt O00311); test: Inhibition of human recombinant CDC7 at 15 nM in presence of ATP by radiometric assay relative to control
Chain of Cell division cycle 7-related protein kinase (Homo sapiens) (O00311 whole entry, looked up, canonical isoform): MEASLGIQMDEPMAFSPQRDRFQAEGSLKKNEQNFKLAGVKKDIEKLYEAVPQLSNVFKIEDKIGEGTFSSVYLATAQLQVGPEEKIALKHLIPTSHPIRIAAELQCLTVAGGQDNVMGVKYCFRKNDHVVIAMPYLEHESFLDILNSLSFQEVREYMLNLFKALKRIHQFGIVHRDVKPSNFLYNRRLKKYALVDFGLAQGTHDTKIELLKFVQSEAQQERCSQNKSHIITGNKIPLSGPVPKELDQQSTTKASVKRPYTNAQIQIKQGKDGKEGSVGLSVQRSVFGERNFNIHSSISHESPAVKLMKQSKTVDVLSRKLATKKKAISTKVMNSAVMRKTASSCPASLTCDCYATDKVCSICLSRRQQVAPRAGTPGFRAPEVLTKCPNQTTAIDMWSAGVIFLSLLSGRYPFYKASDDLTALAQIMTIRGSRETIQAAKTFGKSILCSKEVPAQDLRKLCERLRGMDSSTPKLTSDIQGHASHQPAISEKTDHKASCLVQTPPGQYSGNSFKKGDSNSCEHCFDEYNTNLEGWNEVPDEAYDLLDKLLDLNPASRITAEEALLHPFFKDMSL

[9] = biological target: T3, Phosphorylase b kinase gamma catalytic chain, liver/testis isoform (Homo sapiens) (UniProt P15735); test: Inhibition of human recombinant PHKg2 at 15 nM related to control ULK1
T3 sequence (whole entry): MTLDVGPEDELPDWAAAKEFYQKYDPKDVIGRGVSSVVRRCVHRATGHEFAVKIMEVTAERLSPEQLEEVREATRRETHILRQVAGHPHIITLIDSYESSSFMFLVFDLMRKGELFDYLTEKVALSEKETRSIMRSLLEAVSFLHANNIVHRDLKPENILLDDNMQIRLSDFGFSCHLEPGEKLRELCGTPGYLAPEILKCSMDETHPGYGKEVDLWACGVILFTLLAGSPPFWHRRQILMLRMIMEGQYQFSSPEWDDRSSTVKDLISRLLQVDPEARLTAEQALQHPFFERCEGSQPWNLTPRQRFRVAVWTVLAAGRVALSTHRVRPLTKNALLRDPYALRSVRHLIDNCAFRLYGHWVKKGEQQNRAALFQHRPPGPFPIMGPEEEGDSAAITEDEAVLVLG

Chain of Tau-tubulin kinase 1 (Homo sapiens) (Q5TCY1 whole entry): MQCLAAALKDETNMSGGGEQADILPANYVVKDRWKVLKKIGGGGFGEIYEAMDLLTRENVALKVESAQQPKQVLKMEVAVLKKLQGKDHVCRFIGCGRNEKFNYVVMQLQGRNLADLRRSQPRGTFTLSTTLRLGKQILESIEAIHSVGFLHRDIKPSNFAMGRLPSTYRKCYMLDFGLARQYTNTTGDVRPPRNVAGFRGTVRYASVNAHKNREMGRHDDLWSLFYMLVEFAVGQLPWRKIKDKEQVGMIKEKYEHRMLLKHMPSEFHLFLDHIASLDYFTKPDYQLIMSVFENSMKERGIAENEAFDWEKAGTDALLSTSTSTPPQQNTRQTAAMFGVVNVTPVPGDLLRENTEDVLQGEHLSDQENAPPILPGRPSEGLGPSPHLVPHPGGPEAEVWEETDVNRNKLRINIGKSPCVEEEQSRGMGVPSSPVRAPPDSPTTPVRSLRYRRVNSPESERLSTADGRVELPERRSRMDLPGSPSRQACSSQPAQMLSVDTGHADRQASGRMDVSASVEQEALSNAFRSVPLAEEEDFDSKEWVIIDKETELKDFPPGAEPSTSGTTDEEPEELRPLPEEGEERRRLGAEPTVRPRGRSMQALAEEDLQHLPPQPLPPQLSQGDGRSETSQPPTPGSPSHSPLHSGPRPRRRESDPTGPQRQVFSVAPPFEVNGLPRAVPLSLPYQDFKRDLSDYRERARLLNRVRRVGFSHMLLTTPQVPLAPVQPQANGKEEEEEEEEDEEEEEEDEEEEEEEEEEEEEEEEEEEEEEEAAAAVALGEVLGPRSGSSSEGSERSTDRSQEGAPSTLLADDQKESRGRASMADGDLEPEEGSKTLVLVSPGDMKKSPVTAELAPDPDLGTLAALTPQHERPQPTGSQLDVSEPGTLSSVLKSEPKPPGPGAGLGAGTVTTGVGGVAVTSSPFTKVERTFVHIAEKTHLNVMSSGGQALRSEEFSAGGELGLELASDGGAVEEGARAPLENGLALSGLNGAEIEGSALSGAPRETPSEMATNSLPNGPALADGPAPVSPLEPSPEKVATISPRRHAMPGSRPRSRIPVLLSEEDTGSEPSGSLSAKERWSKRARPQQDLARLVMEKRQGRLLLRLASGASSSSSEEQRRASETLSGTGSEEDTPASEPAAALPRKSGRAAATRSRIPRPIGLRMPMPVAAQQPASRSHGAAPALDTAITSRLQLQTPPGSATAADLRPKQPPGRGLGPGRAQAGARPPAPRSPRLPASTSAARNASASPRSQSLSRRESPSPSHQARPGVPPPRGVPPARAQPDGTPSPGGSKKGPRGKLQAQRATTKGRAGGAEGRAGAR

fold change (FC) [1]: 0.01
inhibition [2]: 0%
SMILES: CNC(=O)c1ccccc1Oc1nc(Nc2cc(OC)c(OC)c(OC)c2)ncc1Br

fold change (FC) [3]: 0.07
SMILES: O=C(N[C@@H](C1CC1)C(F)(F)F)c1cc(-c2cnn3cc(-c4ccc(F)cc4)cnc23)cs1

inhibition [4]: 2%
inhibition [5]: 0%
inhibition [6]: 3%
inhibition [7]: 0%
inhibition [8]: 8%
fold change (FC) [9]: 0.1
SMILES: CC(C)[C@H](NC(=O)c1cc(-c2cnn3cc(-c4ccc(OCCN5CCCCC5)cc4)cnc23)cs1)C(F)(F)F
